Experiments:
[1] = test system: normal NK cells expanded with K562-aAPC; assay: percent inhibition of viability; higher = more inhibition; settings: 72 h, IL-2 2.5 ng/mL
Method: (§1)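 Drug sensitivity and resistance testing on K562-aAPC-expanded normal NK cells: 5 concentrations (10-fold steps over a 10,000-fold range), 72 h at 37 °C, viability by CellTiter-Glo normalised to DMSO and benzethonium chloride controls; DSS from the fitted curve.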

DERL-7 (IL-2 2.5 ng/mL) [2] = assay: as above; settings: 72 h
IMC-1 (IL-2 20 ng/mL) [3] = assay: as above; settings: 72 h
KAI3 (IL-2 2.5 ng/mL) [4] = assay: as above; settings: 72 h
KHYG-1 (IL-2 2.5 ng/mL) [5] = assay: as above; settings: 72 h
NK-92 (IL-2 2.5 ng/mL) [6] = assay: as above; settings: 72 h
NK-YS (IL-2 2.5 ng/mL) [7] = assay: as above; settings: 72 h
NKL (IL-2 2.5 ng/mL) [8] = assay: as above; settings: 72 h
SNK-6 (IL-2 2.5 ng/mL) [9] = assay: as above; settings: 72 h
YT (IL-2 2.5 ng/mL) [10] = assay: as above; settings: 72 h
[11] = test system: normal primary NK cells, pool 1 (3 donors) (IL-2 2.5 ng/mL); assay: as above; settings: 72 h
[12] = test system: normal primary NK cells, pool 1 (3 donors), resting (IL-2 0 ng/mL); assay: as above; settings: 72 h
[13] = test system: normal primary NK cells, pool 2 (3 donors) (IL-2 2.5 ng/mL); assay: as above; settings: 72 h
[14] = test system: normal primary NK cells, pool 3 (3 donors) (IL-2 2.5 ng/mL); assay: as above; settings: 72 h
[15] = test system: normal NK cells expanded with K562-aAPC; assay: drug sensitivity score (DSS) (DSS units); higher = more sensitive; extreme values may be limits of the assay; settings: 72 h; IL-2 2.5 ng/mL
Method: as §1

DERL-7 (IL-2 2.5 ng/mL) [16] = assay: as above; settings: 72 h
IMC-1 (IL-2 20 ng/mL) [17] = assay: as above; settings: 72 h
KAI3 (IL-2 2.5 ng/mL) [18] = assay: as above; settings: 72 h
KHYG-1 (IL-2 2.5 ng/mL) [19] = assay: as above; settings: 72 h
NK-92 (IL-2 2.5 ng/mL) [20] = assay: as above; settings: 72 h
NK-YS (IL-2 2.5 ng/mL) [21] = assay: as above; settings: 72 h
NKL (IL-2 2.5 ng/mL) [22] = assay: as above; settings: 72 h
SNK-6 (IL-2 2.5 ng/mL) [23] = assay: as above; settings: 72 h
YT (IL-2 2.5 ng/mL) [24] = assay: as above; settings: 72 h
[25] = test system: normal primary NK cells, pool 1 (3 donors) (IL-2 2.5 ng/mL); assay: as above; settings: 72 h
[26] = test system: normal primary NK cells, pool 1 (3 donors), resting (IL-2 0 ng/mL); assay: as above; settings: 72 h
[27] = test system: normal primary NK cells, pool 2 (3 donors) (IL-2 2.5 ng/mL); assay: as above; settings: 72 h
[28] = test system: normal primary NK cells, pool 3 (3 donors) (IL-2 2.5 ng/mL); assay: as above; settings: 72 h

O=C(O)CC1CC(c2ccccc2)=NO1 (configuration not stated) [VGX-1027] (max concentration tested 10000 nM)
percent inhibition of viability [%]
Settings | 1 nM | 10 nM | 100 nM | 1000 nM | 10000 nM
DERL-7 (IL-2 2.5 ng/mL) [2] | 0.25 | -1.69 | -4.26 | -3.18 | -6.46
IMC-1 (IL-2 20 ng/mL) [3] | 0.5 | 0.17 | 6.38 | 5.66 | 15.5
KAI3 (IL-2 2.5 ng/mL) [4] | -6.5 | -1.11 | 1.3 | 12.6 | 35.1
KHYG-1 (IL-2 2.5 ng/mL) [5] | 0.61 | -5.96 | -1.03 | 3.73 | 20
NK-92 (IL-2 2.5 ng/mL) [6] | -3.95 | -4.08 | -2.12 | 11.7 | 26.6
NK-YS (IL-2 2.5 ng/mL) [7] | -1.78 | -5.47 | 0.49 | 4.16 | 16.7
NKL (IL-2 2.5 ng/mL) [8] | -7.13 | -10.2 | 1.01 | 15.5 | 23.6
SNK-6 (IL-2 2.5 ng/mL) [9] | -0.72 | -26.7 | -22.3 | -7.03 | 3.07
YT (IL-2 2.5 ng/mL) [10] | -2.93 | -7 | -1.39 | 5.41 | 20.1
[1] | -7.12 | -7.03 | 0.76 | 6.38 | 14.7
[11] | -3.12 | 16.9 | 11.2 | 17.1 | 11.4
[12] | 3.76 | 20.2 | 15.6 | 10.9 | 5.12
[13] | -4.95 | 7.51 | 2.82 | 7.55 | 7.46
[14] | -13.4 | 4.04 | 5.21 | 2.93 | 6.93

Settings | drug sensitivity score
DERL-7 (IL-2 2.5 ng/mL) [16] | 0
IMC-1 (IL-2 20 ng/mL) [17] | 0.28
KAI3 (IL-2 2.5 ng/mL) [18] | 3.28
KHYG-1 (IL-2 2.5 ng/mL) [19] | 1.09
NK-92 (IL-2 2.5 ng/mL) [20] | 2.51
NK-YS (IL-2 2.5 ng/mL) [21] | 0.79
NKL (IL-2 2.5 ng/mL) [22] | 2.41
SNK-6 (IL-2 2.5 ng/mL) [23] | 0
YT (IL-2 2.5 ng/mL) [24] | 1.27
[15] | 0.56
[25] | 4.99
[26] | 0
[27] | 0
[28] | 0

C[C@@H]1C[C@H]2O[C@@H]2/C=C\C=C\C(=O)Cc2c(Cl)c(O)cc(O)c2C(=O)O1 [Radicicol] (max concentration tested 10000 nM)
percent inhibition of viability [%]
Settings | 1 nM | 10 nM | 100 nM | 1000 nM | 10000 nM
DERL-7 (IL-2 2.5 ng/mL) [2] | -0.88 | 14.3 | 79.4 | 100 | 101
IMC-1 (IL-2 20 ng/mL) [3] | -2.78 | 3.67 | 0.43 | 101 | 101
KAI3 (IL-2 2.5 ng/mL) [4] | 1.19 | 9.86 | 58.6 | 99.8 | 94.4
KHYG-1 (IL-2 2.5 ng/mL) [5] | 0.9 | 2.76 | 13.1 | 101 | 110
NK-92 (IL-2 2.5 ng/mL) [6] | -1.96 | -4.16 | 34.1 | 99.2 | 104
NK-YS (IL-2 2.5 ng/mL) [7] | 3.72 | 7.15 | 24.6 | 93.4 | 99.7
NKL (IL-2 2.5 ng/mL) [8] | -1.4 | 4.63 | 30.1 | 85.8 | 81.6
SNK-6 (IL-2 2.5 ng/mL) [9] | 8 | 13.2 | 49.9 | 96.8 | 78.6
YT (IL-2 2.5 ng/mL) [10] | -1.95 | 7.65 | 16.1 | 64.4 | 91.6
[1] | -4.44 | 1.88 | 51 | 98.6 | 80.6
[11] | 5.96 | -3.33 | 44.2 | 80.8 | 94.1
[12] | 9.89 | -3.46 | 22.4 | 41.1 | 75.4
[13] | -13.3 | -1.53 | 60.7 | 82 | 91.3
[14] | -8.94 | -10.4 | 38 | 82.1 | 91.5

Settings | drug sensitivity score
DERL-7 (IL-2 2.5 ng/mL) [16] | 28.9
IMC-1 (IL-2 20 ng/mL) [17] | 18.1
KAI3 (IL-2 2.5 ng/mL) [18] | 25.1
KHYG-1 (IL-2 2.5 ng/mL) [19] | 20.2
NK-92 (IL-2 2.5 ng/mL) [20] | 22.8
NK-YS (IL-2 2.5 ng/mL) [21] | 20
NKL (IL-2 2.5 ng/mL) [22] | 19.4
SNK-6 (IL-2 2.5 ng/mL) [23] | 23.3
YT (IL-2 2.5 ng/mL) [24] | 14.2
[15] | 23.9
[25] | 20.8
[26] | 10.6
[27] | 23.6
[28] | 20.5

CCc1c2c(nc3ccc(OC(=O)N4CCC(N5CCCCC5)CC4)cc13)-c1cc3c(c(=O)n1C2)COC(=O)[C@]3(O)CC [Irinotecan] (max concentration tested 10000 nM)
percent inhibition of viability [%]
Settings | 1 nM | 10 nM | 100 nM | 1000 nM | 10000 nM
DERL-7 (IL-2 2.5 ng/mL) [2] | -4.74 | 4.74 | 6.64 | 65.6 | 96.7
IMC-1 (IL-2 20 ng/mL) [3] | -2.65 | -6.08 | 0 | 95.8 | 99.6
KAI3 (IL-2 2.5 ng/mL) [4] | 16.1 | 10.6 | 29.7 | 88.8 | 84.8
KHYG-1 (IL-2 2.5 ng/mL) [5] | 0.37 | -3.33 | 25.7 | 104 | 109
NK-92 (IL-2 2.5 ng/mL) [6] | 0.95 | -2.29 | 30 | 104 | 109
NK-YS (IL-2 2.5 ng/mL) [7] | -7.5 | -7.35 | 7.27 | 94.2 | 98.5
NKL (IL-2 2.5 ng/mL) [8] | -2.62 | 5.5 | 62.6 | 105 | 108
SNK-6 (IL-2 2.5 ng/mL) [9] | 18.2 | -16.5 | 10.3 | 93.8 | 98.5
YT (IL-2 2.5 ng/mL) [10] | -5.37 | -7.93 | 2.4 | 78.1 | 108
[1] | -0.14 | -0.75 | 0.82 | 45.8 | 61
[11] | -8.27 | 6.89 | -1.05 | 3.55 | 14.4
[12] | 4.36 | 9.89 | 22.8 | 2.26 | -9.62
[13] | 1.46 | 0.89 | 3.4 | 10 | 20.8
[14] | 3.5 | 8.16 | 16.4 | 10.7 | 17.2

Settings | drug sensitivity score
DERL-7 (IL-2 2.5 ng/mL) [16] | 13.6
IMC-1 (IL-2 20 ng/mL) [17] | 17.4
KAI3 (IL-2 2.5 ng/mL) [18] | 19.5
KHYG-1 (IL-2 2.5 ng/mL) [19] | 21.9
NK-92 (IL-2 2.5 ng/mL) [20] | 22.4
NK-YS (IL-2 2.5 ng/mL) [21] | 18.3
NKL (IL-2 2.5 ng/mL) [22] | 25.6
SNK-6 (IL-2 2.5 ng/mL) [23] | 18.7
YT (IL-2 2.5 ng/mL) [24] | 14.6
[15] | 8.77
[25] | 0.5
[26] | 0
[27] | 1.23
[28] | 2.6

Reference: the supplement of paper PMC5908809
